Experiments:
Assay type in all cases: in vivo, Sprague-Dawley rat
[1] = Weight gain inhibition in Sprague-Dawley rats, 65 days' treatment
Method: (§1) Male Sprague-Dawley rats were used with average body weight 223 g. The rats were fed with standard chow.
(§2) Before grouping, all animals were weighed at fasting state for 5 consecutive days. The first dose of the drug as indicated in Table 1 was administered on the next day after grouping; the dose was administered by gavage (t.i.d.) in a solution dose of […] body weight, and continued for a total of 65 days. Initially, each rat was treated accordingly with 0.25 mL drug solution; the dosage was then adjusted according to the body weight change of each rat, by increasing the dose by 0.05 mL for each 50 g body weight increment.
(§3) Groups were fed overnight with 30 g chowrat after drug administration and food deprived during daytime. Overnight food intake was measured every morning, while fasting body weight was measured every Tuesday and Friday night.
(§4) Statistical analysis was performed with SPSS software (IBM). One-way ANOVA was performed.

[2] = Overnight food intake in Sprague-Dawley rats during dosing; settings: daily overnight food intake, 65 days of treatment, n=10
Method: as §1, §2, §3, §4

[3] = Fat mass of Sprague-Dawley rats after 65 days' treatment; settings: for Fat Mass: average total fat mass after 65 days, n=10
Method: as §1, §2, §4

[4] = after 65 consecutive days of treatment

CC(C)CC(N(C)C)C1(c2ccc(Cl)cc2)CCC1 (centres unmarked) [SIB, sibutramine]
Effect on body weight gain [1, 4]: decreased body weight gain
Post-Dose body weight ([1]; male Sprague-Dawley rats, gavage t.i.d., 65 days, fasting body weight, n=10): 493.8 ± 13.0 g
ΔBW (increase of body weight) ([1]; male Sprague-Dawley rats, gavage t.i.d., 65 days, n=10): 270.7 ± 11.6 g
ΔBW (increase of body weight) ([1]; male Sprague-Dawley rats, gavage t.i.d., 65 days, n=10, listed as sibutramine): 270.7 g
Relative Body Weight ([1]; vs. GS control group, 65 days, n=10): -22.0 g
Weight Loss Ratio ([1]; vs. GS control group, 65 days, n=10, listed as sibutramine): 4.3%
Average Food Intake During Dosing [2]: 29.4 ± 0.9 g
Average Food Intake During Dosing ([2]; listed as sibutramine): 29.4 g
Effect on fat mass [3, 4]: reduced fat mass
Fat Mass [3]: 25.5 ± 6.3 g
Fat Mass ([3]; listed as sibutramine): 25.5 g

Source: US20140350064A1, “PHARMACEUTICAL COMPOSITION COMPRISING AN AMPK ACTIVATOR AND A SEROTONERGIC AGENT AND METHODS OF USE THEREOF” (priority 2013, published 2014)
